The results in this text go back to patent US20210276985A1, “NOVEL COMPOUNDS” (priority 2018, published 2021).

The test relates to human Kv3.1 channels. The experiment in a line: Kv3.1 channel modulation, IonWorks Quattro planar array electrophysiology in HEK-hKv3.1 cells. As to conditions: hKv3.1 HEK cells, -15 mV step. Type of test: cell-based. The text has this:
The ability of the compounds of the invention to modulate the voltage-gated potassium channel subtypes Kv3.3/Kv3.2/Kv3.1 may be determined using the following assay. Analogous methods may be used to investigate the ability of the compounds of the invention to modulate other channel subtypes.
To assess compound effects on human Kv3.1 channels (hKv3.1): Human embryonic kidney (HEK)-hKv3.1 cell line is generated by transfecting HEK-293 cells with an expression vector with human Kv3.1 (NM_004976.4). Cells are cultured with MEM supplemented with 10% Heat-Inactivated FBS, 2 mM L-glutamine, 1% Penicillin-Streptomycin, and 0.6 mg/ml of Geneticin (G418). HEK-hKv3.1b cells were amplified in T175 cm2 flask at 37° C. with 5% CO2, using MEM amplification medium, containing the G418 selection antibiotic (0.6 mg/ml). Cells were detached every 3-4 days, using DPBS to wash twice the flask, then TrypLE to dislodge the cells, and re-plated at a density of 2-4×10^6 cells/flask.
The day of the experiment, cells are removed from the incubator and the culture medium removed. […]
Experiments are conducted at r.t. using IonWorks Quattro™ planar array electrophysiology technology (Molecular Devices Corp.) with PatchPlate™ PPC. […] Planar electrode hole resistances (Rp) are determined by applying a 10 mV voltage step across each well. […]
A general note: Patch clamp records ionic current or voltage across a cell membrane.

Each structure is given as a SMILES string.

As for `CC[C@@H]1NC(=O)N(c2cnc(Oc3ccc(C)c4c3C3(CC3)CO4)cn2)C1=O` [Example 15, (5S)-5-ethyl-3-[5-(7-methylspiro[2H-benzofuran-3,1′-cyclopropane]-4-yl)oxypyrazin-2-yl]imidazolidine-2,4-dione], the “Kv3.1 pEC50” value (EC50 = 50% of maximum increase by reference compound) is 5.10. In addition, the “Kv3.1 max R %” value (normalised to maximum effect of reference compound (50 microM)) is 136%.
